According to patent US8754079B2, “Cycloalkyl containing thienopyrimidines for pharmaceutical compositions” (Boehringer Ingelheim International GmbH, priority 2010, dated 2014):

Assays:
[1] = system: Mnk2 (Mnk2a or Mnk2b) or Mnk1; settings: addition to cell culture cells transfected with Mnk2 (Mnk2a or Mnk2b) or Mnk1; cited from earlier work
MNK2 = biological target: T1, MNK2 (Homo sapiens, UniProt Q9HBH9); experiment: Mnk2a in vitro kinase assay (indirect fluorescence polarization); format: biochemical; settings: pre-activated GST-Mnk2a 2.5 nM, 20 μM ATP, 30 μM substrate peptide
T1 construct: the open reading frames of human Mnk1 and Mnk2a were amplified from cDNA; made in house; host or cells: E. coli BL21
T1 sequence (Q9HBH9 whole entry): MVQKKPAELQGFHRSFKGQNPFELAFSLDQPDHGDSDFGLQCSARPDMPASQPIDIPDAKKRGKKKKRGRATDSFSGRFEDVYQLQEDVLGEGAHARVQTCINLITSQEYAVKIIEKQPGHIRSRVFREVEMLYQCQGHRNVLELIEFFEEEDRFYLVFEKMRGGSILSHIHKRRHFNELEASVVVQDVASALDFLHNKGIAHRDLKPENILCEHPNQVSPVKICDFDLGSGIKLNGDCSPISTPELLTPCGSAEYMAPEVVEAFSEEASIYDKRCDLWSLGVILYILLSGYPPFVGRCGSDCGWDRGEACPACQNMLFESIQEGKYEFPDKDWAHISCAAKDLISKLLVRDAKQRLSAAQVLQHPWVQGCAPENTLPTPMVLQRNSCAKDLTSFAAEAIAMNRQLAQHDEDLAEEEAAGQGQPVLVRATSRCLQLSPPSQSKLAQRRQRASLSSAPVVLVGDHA
Summary of the method: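 Human GST-Mnk2a was expressed in E. coli and activated in vitro with 150 nM pre-activated ERK2 and 50 μM ATP in HEPES pH 7.4/MgCl2 buffer (45 min, 30 °C). Activity on an eIF4E Ser209-derived 12mer peptide was read by competitive fluorescence polarization with a phospho-specific antibody.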

| SMILES | IC50 (MNK2) | reduction of phosphorylated eIF4E [1] |
| --- | --- | --- |
| Nc1ncnc2n[nH]c(Nc3ccc(F)cc3)c12 [CGP57380] |  | strong reduction |
| CO[C@H]1CC[C@H](Oc2cc(F)ccc2Nc2ncnc3sc(C(=O)NCCCN4C(=O)CCC4=O)c(C)c23)CC1 [Example 280] | 9 nM |  |
| Cc1c(C(=O)O)sc2ncnc(Nc3cccnc3O[C@H]3CC[C@H](N)CC3)c12 [Example 282, 4-[2-(4-Amino-cyclohexyloxy)-pyridin-3-ylamino]-5-methyl-thieno[2,3-d]pyrimidine-6-carboxylic acid] | 11 nM |  |
| CNC(=O)c1sc2ncnc(Nc3cccnc3O[C@H]3CC[C@H](N)CC3)c2c1C [Example 285] | 9 nM |  |
| CCCCNC(=O)c1sc2ncnc(Nc3cccnc3O[C@H]3CC[C@H](N)CC3)c2c1C [Example 286] | 4 nM |  |
| Cc1c(C(=O)NC(C)C)sc2ncnc(Nc3cccnc3O[C@H]3CC[C@H](N)CC3)c12 [Example 287] | 5 nM |  |
| Cc1c(C(=O)NCCO)sc2ncnc(Nc3cccnc3O[C@H]3CC[C@H](N)CC3)c12 [Example 288] | 19 nM |  |
| CCCNC(=O)c1sc2ncnc(Nc3cccnc3O[C@H]3CC[C@H](N)CC3)c2c1C [Example 289, 4-[2-(4-Amino-cyclohexyloxy)-pyridin-3-ylamino]-5-methyl-thieno[2,3-d]pyrimidine-6-carboxylic acid propyl amide] | 2 nM |  |
| Cc1c(C(=O)NC2CCN(C)CC2)sc2ncnc(Nc3ccc(F)cc3O[C@H]3C[C@@H]4OCO[C@@H]4C3)c12 [Example 292] | 46 nM |  |
| CC(=O)N[C@H]1CCC[C@@H]1Oc1cc(F)ccc1Nc1ncnc2sc(C(N)=O)c(C)c12 [Example 295, (1S,2S) 4-{2-[2-(Acetyl-amino)-cyclopentyloxy]-4-fluoro-phenylamino}-5-methyl thieno[2,3-d]pyrimidine-6-carboxylic acid amide] | 95 nM |  |

Further lines, with some results ahead:

| IC50 (MNK2) | SMILES | reduction of phosphorylated eIF4E [1] |
| --- | --- | --- |
| 12 nM | Cc1c(C(=O)NCCCN2CCCC2=O)sc2ncnc(Nc3ccc(F)cc3O[C@H]3CC[C@H](O)CC3)c12 [Example 271, 4-[4-Fluoro-2-(trans-4-hydroxy-cyclohexyloxy)-phenylamino]-5-methyl-thieno[2,3-d]pyrimidine-6-carboxylic acid [3-(2-oxo-pyrrolidin-1-yl)-propyl]amide] |  |
| 10 nM | CO[C@H]1CC[C@H](Oc2cc(F)ccc2Nc2ncnc3sc(C(=O)NCCCN4CCCCC4)c(C)c23)CC1 [Example 275] |  |
| 12 nM | CCN(CC)CCCNC(=O)c1sc2ncnc(Nc3ccc(F)cc3O[C@H]3CC[C@H](OC)CC3)c2c1C [Example 276] |  |
| 13 nM | CO[C@H]1CC[C@H](Oc2cc(F)ccc2Nc2ncnc3sc(C(=O)NCC(O)CN(C)C)c(C)c23)CC1 (some centres unmarked) [Example 277] |  |
| 7 nM | CO[C@H]1CC[C@H](Oc2cc(F)ccc2Nc2ncnc3sc(C(=O)NCCCN(CCO)CCO)c(C)c23)CC1 [Example 278] |  |
| 11 nM | CO[C@H]1CC[C@H](Oc2cc(F)ccc2Nc2ncnc3sc(C(=O)NCCCN4CCCC4=O)c(C)c23)CC1 [Example 279] |  |
| 66 nM | COC(=O)c1sc2ncnc(Nc3cccnc3O[C@H]3CC[C@H](N)CC3)c2c1C [Example 281, 4-[2-(4-Amino-cyclohexyloxy)-pyridin-3-ylamino]-5-methyl-thieno[2,3-d]pyrimidine-6-carboxylic acid methyl ester] |  |
| 6 nM | Cc1c(C(N)=O)sc2ncnc(Nc3cccnc3O[C@H]3CC[C@H](N)CC3)c12 [Example 283, 4-[2-(4-Amino-cyclohexyloxy)-pyridin-3-ylamino]-5-methyl-thieno[2,3-d]pyrimidine-6-carboxylic acid amide] |  |
| 10 nM | CCNC(=O)c1sc2ncnc(Nc3cccnc3O[C@H]3CC[C@H](N)CC3)c2c1C [Example 284] |  |
| 8 nM | Cc1c(C(=O)O)sc2ncnc(Nc3ccc(F)cc3O[C@H]3C[C@@H]4OCO[C@@H]4C3)c12 [Example 290, 4-[4-Fluoro-2-(tetrahydro-cyclopenta[1,3]dioxol-5-yloxy)phenylamino]-5-methyl-thieno[2,3-d]pyrimidine-6-carboxylic acid] |  |
| 19 nM | Cc1c(C(=O)NCCCN2CCCC2)sc2ncnc(Nc3ccc(F)cc3O[C@H]3C[C@@H]4OCO[C@@H]4C3)c12 [Example 291, 4-[4-Fluoro-2-(tetrahydro-cyclopenta[1,3]dioxol-5-yloxy)phenylamino]-5-methyl-thieno[2,3-d]pyrimidine-6-carboxylic acid (3-pyrrolidin-1-yl-propyl)-amide] |  |
| 377 nM | Cc1c(C(N)=O)sc2ncnc(Nc3ccc(F)cc3O[C@H]3CCC[C@@H]3NC(=O)C3CC3)c12 [Example 293, (1S,2S) 4-{2-[2-(Cyclopropanecarbonyl-amino)-cyclopentyloxy]-4-fluoro-phenylamino}-5-methyl thieno[2,3-d]pyrimidine-6-carboxylic acid amide] |  |
| 183 nM | COC(=O)N[C@H]1CCC[C@@H]1Oc1cc(F)ccc1Nc1ncnc2sc(C(N)=O)c(C)c12 [Example 294] |  |
